Like-named read-outs stand apart in the source and are kept apart here. One block for each compound: values may come before it.
How the values were obtained:
Experiment in all cases: biochemical
BRPF1 = biological target: T1, BRPF1 (Homo sapiens, UniProt P55201)
T1 sequence (P55201 1-1214): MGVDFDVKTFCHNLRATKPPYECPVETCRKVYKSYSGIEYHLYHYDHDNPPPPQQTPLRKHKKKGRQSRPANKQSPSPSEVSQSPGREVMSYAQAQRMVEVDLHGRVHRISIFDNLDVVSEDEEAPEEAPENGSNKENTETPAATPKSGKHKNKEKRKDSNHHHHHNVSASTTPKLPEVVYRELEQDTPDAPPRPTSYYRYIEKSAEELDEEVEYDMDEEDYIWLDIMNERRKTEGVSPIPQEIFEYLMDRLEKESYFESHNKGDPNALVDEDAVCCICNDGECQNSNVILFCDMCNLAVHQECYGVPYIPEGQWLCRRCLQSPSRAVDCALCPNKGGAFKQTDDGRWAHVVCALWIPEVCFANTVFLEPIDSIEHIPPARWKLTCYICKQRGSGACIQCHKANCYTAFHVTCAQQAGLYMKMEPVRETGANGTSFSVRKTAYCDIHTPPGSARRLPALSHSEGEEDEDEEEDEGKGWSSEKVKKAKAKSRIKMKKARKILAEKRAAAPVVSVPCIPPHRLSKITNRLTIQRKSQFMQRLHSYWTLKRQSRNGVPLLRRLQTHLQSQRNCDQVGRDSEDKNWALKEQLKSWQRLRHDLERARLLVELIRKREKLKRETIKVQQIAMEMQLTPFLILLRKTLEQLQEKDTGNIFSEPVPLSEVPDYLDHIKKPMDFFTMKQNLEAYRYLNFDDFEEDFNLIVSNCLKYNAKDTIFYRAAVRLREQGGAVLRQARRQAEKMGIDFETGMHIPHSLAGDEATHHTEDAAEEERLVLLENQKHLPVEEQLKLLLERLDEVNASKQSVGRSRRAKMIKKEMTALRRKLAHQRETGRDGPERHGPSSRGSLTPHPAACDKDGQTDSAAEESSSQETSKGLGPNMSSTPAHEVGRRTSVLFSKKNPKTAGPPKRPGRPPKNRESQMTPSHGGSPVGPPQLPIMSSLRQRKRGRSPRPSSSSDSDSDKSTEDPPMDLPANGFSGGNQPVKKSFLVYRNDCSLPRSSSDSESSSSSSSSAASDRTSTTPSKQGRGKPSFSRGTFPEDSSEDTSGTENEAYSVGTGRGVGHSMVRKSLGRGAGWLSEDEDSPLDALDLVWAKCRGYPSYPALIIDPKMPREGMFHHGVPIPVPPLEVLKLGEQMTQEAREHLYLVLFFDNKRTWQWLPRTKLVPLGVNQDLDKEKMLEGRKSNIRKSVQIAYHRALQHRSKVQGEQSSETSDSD

EphB3 = biological target: T2, EphB3 (Homo sapiens, UniProt P54753)
T2 sequence (P54753 1-998): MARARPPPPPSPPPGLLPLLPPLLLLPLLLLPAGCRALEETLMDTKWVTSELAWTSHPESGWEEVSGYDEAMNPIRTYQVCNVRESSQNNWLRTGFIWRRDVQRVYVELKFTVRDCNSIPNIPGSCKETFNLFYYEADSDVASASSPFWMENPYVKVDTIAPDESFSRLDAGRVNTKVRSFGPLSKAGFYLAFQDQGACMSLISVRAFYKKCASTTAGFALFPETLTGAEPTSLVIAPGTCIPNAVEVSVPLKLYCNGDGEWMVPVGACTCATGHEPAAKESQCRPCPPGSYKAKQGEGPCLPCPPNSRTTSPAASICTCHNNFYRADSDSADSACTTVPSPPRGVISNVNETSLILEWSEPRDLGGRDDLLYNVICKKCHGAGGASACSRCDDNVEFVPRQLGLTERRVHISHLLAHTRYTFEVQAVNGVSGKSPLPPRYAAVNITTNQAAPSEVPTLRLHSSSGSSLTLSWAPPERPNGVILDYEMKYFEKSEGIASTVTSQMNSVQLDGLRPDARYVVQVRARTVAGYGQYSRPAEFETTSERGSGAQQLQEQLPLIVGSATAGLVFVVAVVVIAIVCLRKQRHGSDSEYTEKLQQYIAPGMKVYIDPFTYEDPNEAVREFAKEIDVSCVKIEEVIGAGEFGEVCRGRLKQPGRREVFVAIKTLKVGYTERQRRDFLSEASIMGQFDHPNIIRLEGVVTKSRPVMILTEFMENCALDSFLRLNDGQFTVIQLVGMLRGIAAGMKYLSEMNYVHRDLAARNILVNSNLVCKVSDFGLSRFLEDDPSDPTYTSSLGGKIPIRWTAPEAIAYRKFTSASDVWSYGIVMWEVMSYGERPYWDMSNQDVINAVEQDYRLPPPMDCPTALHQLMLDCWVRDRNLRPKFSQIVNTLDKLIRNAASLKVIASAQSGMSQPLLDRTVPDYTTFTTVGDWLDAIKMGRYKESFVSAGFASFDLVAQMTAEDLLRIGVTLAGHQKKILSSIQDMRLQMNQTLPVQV

FGFR2 = FGFR2 (Homo sapiens, UniProt P21802)
Chain of FGFR2 (P21802 whole entry): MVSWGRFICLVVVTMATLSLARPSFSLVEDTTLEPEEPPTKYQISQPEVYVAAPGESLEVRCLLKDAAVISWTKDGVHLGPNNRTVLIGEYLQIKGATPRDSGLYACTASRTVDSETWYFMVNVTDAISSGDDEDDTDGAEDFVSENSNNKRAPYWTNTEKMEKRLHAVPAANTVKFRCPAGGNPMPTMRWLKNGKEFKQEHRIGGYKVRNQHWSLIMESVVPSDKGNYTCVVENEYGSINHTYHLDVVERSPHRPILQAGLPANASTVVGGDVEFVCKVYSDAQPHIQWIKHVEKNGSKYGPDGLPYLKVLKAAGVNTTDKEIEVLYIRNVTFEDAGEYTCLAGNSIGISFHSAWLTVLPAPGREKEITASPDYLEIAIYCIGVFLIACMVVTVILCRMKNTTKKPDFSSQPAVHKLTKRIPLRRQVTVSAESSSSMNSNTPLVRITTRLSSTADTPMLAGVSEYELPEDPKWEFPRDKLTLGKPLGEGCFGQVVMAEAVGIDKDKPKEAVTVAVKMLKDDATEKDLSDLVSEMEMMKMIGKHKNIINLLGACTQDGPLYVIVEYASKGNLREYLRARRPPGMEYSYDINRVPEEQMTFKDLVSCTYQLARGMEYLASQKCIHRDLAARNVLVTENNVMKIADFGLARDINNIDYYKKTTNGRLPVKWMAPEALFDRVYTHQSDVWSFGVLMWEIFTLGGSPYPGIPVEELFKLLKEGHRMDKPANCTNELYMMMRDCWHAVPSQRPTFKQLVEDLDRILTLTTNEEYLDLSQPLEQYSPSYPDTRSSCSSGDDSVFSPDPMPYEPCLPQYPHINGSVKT

OSR1 = OSR1 (Homo sapiens, UniProt O95747)
Chain of OSR1 (O95747 whole entry): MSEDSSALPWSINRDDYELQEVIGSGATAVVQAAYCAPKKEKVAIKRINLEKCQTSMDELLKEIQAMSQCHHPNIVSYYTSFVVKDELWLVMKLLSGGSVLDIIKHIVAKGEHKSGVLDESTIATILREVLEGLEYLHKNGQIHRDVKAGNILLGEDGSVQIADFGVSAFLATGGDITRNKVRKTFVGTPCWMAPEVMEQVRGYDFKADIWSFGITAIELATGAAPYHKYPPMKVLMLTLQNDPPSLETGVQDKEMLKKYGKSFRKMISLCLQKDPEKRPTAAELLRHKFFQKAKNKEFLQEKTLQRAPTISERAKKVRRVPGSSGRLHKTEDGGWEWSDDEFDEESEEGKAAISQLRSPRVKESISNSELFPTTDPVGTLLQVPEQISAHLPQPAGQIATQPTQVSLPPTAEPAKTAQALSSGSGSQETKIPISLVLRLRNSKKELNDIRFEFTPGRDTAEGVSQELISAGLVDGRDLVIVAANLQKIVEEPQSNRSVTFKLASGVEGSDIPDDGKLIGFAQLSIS

TAF1 = TAF1 (Homo sapiens, UniProt P21675)
Chain of TAF1 (P21675 whole entry): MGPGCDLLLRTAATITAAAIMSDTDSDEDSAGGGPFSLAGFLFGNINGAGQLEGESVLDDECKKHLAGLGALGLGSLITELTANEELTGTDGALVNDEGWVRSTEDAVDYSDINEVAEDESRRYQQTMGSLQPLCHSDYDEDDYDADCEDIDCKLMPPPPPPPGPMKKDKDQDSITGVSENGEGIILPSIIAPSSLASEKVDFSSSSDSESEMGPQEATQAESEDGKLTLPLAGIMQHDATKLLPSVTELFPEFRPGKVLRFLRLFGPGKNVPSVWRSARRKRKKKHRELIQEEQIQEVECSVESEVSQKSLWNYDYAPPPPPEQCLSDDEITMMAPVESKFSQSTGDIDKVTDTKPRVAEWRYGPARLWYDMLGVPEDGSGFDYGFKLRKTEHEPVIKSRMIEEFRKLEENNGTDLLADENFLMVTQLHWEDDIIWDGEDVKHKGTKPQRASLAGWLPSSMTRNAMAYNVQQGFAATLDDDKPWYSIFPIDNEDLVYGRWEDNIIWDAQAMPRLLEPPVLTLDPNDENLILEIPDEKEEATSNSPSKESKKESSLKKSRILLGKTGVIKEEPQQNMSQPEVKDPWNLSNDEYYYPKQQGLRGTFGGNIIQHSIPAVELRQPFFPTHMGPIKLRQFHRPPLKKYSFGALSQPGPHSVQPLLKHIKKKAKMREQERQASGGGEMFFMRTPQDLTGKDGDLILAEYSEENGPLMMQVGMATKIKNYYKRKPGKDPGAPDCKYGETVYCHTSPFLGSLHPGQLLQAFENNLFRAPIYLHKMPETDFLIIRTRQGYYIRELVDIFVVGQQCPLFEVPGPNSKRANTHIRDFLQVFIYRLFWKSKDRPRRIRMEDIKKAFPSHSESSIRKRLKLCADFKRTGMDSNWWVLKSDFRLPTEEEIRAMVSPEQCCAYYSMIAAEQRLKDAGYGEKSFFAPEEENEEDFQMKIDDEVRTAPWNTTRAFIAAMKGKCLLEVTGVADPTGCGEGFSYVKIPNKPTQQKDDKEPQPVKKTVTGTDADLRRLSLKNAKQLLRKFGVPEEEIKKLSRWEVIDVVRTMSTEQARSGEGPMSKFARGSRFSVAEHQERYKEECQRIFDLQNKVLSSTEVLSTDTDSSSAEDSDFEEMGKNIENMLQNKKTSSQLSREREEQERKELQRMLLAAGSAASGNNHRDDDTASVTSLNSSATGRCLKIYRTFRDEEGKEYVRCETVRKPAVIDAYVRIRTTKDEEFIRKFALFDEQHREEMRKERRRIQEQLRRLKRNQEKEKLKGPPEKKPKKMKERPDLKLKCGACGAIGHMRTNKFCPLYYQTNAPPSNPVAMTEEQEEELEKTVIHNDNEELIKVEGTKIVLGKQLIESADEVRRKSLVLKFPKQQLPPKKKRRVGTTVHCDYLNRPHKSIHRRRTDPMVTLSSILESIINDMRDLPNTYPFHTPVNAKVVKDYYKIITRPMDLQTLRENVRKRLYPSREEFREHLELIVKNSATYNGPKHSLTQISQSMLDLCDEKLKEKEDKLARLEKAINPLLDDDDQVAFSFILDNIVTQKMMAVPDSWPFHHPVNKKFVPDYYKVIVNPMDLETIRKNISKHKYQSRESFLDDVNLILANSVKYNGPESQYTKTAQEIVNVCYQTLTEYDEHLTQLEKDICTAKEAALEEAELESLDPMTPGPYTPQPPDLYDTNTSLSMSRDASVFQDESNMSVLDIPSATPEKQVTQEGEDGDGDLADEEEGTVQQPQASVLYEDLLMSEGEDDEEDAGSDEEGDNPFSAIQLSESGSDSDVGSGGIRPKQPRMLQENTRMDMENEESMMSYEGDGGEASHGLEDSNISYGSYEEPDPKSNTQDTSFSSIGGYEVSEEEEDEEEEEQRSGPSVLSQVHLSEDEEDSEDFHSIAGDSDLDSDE

Structure (SMILES): CNc1ncc2cc(-c3cc(F)ccc3F)c(=O)n(CCCCN)c2n1 [compound 5, 8-(4-Aminobutyl)-6-(2,5-difluorophenyl)-2-(methylamino)pyrido[2,3-d]pyrimidin-7(8H)-one]
ΔTm at 10 µM (BRPF1; read-out: dTm MR22 (5)): -1 °C
ΔTm at 10 µM (EphB3; read-out: dTm MR22 (5)): 3.3 °C
ΔTm at 10 µM (FGFR2; read-out: dTm MR22 (5)): 3.7 °C
ΔTm at 10 µM (OSR1; read-out: dTm MR22 (5)): -0.8 °C
ΔTm at 10 µM (TAF1; read-out: dTm MR22 (5)): 0.2 °C

Structure (SMILES): CNc1ncc2cc(-c3cc(Br)ccc3Cl)c(=O)n(CCCCN)c2n1 [compound 6, 8-(4-Aminobutyl)-6-(5-bromo-2-chlorophenyl)-2-(methylamino)pyrido[2,3-d]pyrimidin-7(8H)-one]
ΔTm at 10 µM (BRPF1; read-out: dTm 6): 0.3 °C
ΔTm at 10 µM (EphB3; read-out: dTm 6): 3.5 °C
ΔTm at 10 µM (FGFR2; read-out: dTm 6): 4.1 °C
ΔTm at 10 µM (OSR1; read-out: dTm 6): 0.3 °C
ΔTm at 10 µM (TAF1; read-out: dTm 6): -0.6 °C

Structure (SMILES): CNc1ncc2cc(-c3ccc(-c4cccc(C)n4)cc3Cl)c(=O)n(CC3OCC(N)CO3)c2n1 (stereo not drawn) [compound 2, G-5555]
dTm G-5555 (2) (BRPF1; 10 µM, binder): 0.8 °C
dTm G-5555 (2) (EphB3; 10 µM, binder): 1.7 °C
dTm G-5555 (2) (FGFR2; 10 µM, binder): 0.7 °C
dTm G-5555 (2) (OSR1; 10 µM, binder): 0.2 °C

More lines, now with the values ahead:

ΔTm at 10 µM (BRPF1; read-out: dTm MR21 (4)): 0.7 °C
ΔTm at 10 µM (EphB3; read-out: dTm MR21 (4)): 6 °C
ΔTm at 10 µM (FGFR2; read-out: dTm MR21 (4)): 4.7 °C
ΔTm at 10 µM (OSR1; read-out: dTm MR21 (4)): 1.3 °C
ΔTm at 10 µM (TAF1; read-out: dTm MR21 (4)): -0.1 °C
Structure (SMILES): CNc1ncc2cc(-c3ccccc3Cl)c(=O)n(CCCCN)c2n1 [compound 4, 8-(4-Aminobutyl)-6-(2-chlorophenyl)-2-(methylamino)pyrido[2,3-d]pyrimidin-7(8H)-one]

ΔTm at 10 µM (BRPF1; read-out: dTm 7): -0.7 °C
ΔTm at 10 µM (EphB3; read-out: dTm 7): 2.5 °C
ΔTm at 10 µM (FGFR2; read-out: dTm 7): 3.7 °C
ΔTm at 10 µM (OSR1; read-out: dTm 7): 0 °C
ΔTm at 10 µM (TAF1; read-out: dTm 7): -0.8 °C
Structure (SMILES): CNc1ncc2cc(-c3cc(Br)ccc3Cl)c(=O)n(C[C@H]3OC[C@H](N)CO3)c2n1 [compound 7, 8-(((2r,5r)-5-Amino-1,3-dioxan-2-yl)methyl)-6-(5-bromo-2-chlorophenyl)-2-(methylamino)pyrido[2,3-d]pyrimidin-7(8H)-one]

— article doi:10.1101/2023.03.24.534094v2 (biorxiv, 2023)
